# Test results as given in ChEMBL document CHEMBL5291721, “A preclinical secondary pharmacology resource illuminates target-adverse drug reaction associations of marketed drugs” (Nat Commun, 2023).
# Legend:
# Adenosine receptor A3 = target: T1, Adenosine receptor A3 (Homo sapiens, UniProt P0DMS8)
# T1 sequence (P0DMS8 whole entry): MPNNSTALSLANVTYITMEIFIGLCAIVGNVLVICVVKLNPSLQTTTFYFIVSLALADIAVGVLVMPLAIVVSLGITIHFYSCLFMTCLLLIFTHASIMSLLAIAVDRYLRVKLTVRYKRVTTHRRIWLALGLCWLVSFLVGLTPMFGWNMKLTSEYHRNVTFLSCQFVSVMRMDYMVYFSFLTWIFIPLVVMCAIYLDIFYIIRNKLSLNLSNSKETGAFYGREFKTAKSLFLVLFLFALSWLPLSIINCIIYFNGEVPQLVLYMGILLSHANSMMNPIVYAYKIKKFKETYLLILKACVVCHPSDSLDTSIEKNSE
# [1] = target: T2, Alpha-1A adrenergic receptor (Homo sapiens, UniProt P35348); type: functional, cell-based
# T2 sequence (P35348 whole entry): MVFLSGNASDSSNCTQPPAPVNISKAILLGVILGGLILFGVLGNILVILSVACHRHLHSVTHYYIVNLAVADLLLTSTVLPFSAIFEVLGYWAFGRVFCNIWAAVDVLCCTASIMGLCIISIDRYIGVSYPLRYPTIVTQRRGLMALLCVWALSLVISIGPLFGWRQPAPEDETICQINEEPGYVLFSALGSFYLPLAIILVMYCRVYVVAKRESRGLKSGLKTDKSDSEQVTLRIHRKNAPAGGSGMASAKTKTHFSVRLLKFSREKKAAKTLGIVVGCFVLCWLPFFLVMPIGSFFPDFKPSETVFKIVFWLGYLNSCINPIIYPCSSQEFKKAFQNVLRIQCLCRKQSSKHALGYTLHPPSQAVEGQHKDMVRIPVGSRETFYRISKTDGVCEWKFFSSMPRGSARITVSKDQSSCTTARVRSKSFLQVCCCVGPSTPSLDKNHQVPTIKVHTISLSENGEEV
# [2] = target: T3, Muscarinic acetylcholine receptor M1 (Homo sapiens, UniProt P11229); type: functional, cell-based
# T3 sequence (P11229 whole entry): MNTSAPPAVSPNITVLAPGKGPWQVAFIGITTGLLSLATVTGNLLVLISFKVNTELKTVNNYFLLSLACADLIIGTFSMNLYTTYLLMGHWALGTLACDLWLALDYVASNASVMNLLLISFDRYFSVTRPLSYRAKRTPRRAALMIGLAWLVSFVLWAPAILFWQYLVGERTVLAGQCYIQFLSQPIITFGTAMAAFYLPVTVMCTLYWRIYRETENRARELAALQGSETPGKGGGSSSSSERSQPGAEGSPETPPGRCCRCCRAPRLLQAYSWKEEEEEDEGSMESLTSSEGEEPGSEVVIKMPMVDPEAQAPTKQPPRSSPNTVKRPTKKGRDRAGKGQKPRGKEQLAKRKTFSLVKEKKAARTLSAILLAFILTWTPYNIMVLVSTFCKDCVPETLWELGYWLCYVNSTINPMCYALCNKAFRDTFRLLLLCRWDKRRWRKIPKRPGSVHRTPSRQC
# Histamine H3 receptor = Histamine H3 receptor (Homo sapiens, UniProt Q9Y5N1)
# [3] = target: 3',5'-cyclic-AMP phosphodiesterase 4A (Homo sapiens, UniProt P27815); type: functional
# [4] = target: Glutamate receptor ionotropic, NMDA 1 (Rattus norvegicus, UniProt P35439)
# [5] = target: Sodium-dependent dopamine transporter (Homo sapiens, UniProt Q01959)
# Note: assay procedure not described here.
# Chain of Histamine H3 receptor (Q9Y5N1 whole entry): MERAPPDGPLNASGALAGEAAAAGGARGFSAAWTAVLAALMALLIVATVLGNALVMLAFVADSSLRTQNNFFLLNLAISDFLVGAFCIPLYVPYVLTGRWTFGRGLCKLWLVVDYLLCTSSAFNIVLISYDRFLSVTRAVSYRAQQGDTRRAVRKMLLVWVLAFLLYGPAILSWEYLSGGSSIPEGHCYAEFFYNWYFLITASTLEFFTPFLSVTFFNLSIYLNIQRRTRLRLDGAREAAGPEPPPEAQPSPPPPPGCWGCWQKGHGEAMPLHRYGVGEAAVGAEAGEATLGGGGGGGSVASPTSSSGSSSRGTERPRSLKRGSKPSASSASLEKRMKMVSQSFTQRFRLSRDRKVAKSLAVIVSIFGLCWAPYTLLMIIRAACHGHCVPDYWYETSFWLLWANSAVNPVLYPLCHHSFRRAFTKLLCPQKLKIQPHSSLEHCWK
# Chain of 3',5'-cyclic-AMP phosphodiesterase 4A (P27815 whole entry): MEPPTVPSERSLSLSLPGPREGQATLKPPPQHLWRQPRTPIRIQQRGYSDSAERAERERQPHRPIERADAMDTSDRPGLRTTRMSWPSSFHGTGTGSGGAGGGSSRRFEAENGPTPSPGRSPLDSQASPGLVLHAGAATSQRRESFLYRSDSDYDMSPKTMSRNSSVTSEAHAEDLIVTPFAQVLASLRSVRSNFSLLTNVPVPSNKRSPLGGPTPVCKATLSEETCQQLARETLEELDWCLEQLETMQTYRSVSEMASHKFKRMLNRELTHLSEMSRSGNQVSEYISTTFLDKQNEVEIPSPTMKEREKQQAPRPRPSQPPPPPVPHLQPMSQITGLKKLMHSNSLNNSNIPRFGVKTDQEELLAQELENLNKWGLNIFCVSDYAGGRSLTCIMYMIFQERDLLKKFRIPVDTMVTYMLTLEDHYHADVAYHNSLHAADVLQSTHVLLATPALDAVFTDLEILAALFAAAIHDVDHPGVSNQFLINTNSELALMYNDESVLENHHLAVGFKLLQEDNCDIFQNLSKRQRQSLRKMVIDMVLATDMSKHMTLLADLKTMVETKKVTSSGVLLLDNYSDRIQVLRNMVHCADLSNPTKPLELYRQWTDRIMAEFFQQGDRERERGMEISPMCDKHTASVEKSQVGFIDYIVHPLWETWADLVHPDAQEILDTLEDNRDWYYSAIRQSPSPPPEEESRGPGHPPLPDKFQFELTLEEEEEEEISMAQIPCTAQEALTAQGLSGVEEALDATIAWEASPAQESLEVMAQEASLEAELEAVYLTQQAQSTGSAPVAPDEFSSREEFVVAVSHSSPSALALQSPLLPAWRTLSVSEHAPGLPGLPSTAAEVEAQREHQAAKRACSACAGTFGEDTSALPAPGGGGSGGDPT
# Chain of Sodium-dependent dopamine transporter (Q01959 whole entry): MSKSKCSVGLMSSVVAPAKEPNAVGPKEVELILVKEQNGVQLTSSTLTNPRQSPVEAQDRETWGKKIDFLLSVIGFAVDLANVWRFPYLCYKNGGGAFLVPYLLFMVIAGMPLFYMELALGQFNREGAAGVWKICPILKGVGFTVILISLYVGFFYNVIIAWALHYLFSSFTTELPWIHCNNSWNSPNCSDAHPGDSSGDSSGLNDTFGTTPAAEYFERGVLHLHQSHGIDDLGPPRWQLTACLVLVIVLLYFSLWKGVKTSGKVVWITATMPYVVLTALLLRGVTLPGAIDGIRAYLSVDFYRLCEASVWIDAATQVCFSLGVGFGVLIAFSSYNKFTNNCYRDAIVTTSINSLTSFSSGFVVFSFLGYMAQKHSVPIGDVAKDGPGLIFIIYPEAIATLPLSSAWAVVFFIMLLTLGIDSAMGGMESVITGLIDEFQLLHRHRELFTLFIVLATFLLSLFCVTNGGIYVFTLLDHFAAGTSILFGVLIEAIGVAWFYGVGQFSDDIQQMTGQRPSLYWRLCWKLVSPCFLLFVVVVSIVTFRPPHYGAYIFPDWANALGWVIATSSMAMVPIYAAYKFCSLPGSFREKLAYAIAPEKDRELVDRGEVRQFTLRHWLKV
SMILES,AC50 (Adenosine receptor A3) [µM],AC50 [1] [µM],AC50 [2] [µM],AC50 (Histamine H3 receptor) [µM],AC50 [3] [µM],AC50 [4] [µM],AC50 [5] [µM]
O=c1[nH]c2ccccc2n1CCN1CCN(c2cccc(C(F)(F)F)c2)CC1 [FLIBANSERIN],15.6,0.391,10.1,> 30,> 30,,
O=C(O)[C@H](O)[C@@H](O)[C@H](O)[C@H](O)CO [GLUCONIC ACID],> 30,> 30,> 30,> 30,21.4,,
N=C(N)NCC1COc2ccccc2O1 (configuration not stated) [GUANOXAN],> 30,21.3,> 30,> 30,> 30,,
N#Cc1ccnc(N2C(=O)CC[C@H]2C(=O)N(c2cncc(F)c2)[C@H](C(=O)NC2CC(F)(F)C2)c2ccccc2Cl)c1 [IVOSIDENIB],> 30,> 30,> 30,> 30,> 30,,
CCCCCCO[C@@H](C)c1cccc(-c2csc(NC(=O)c3cc(Cl)c(/C=C(\C)C(=O)O)c(Cl)c3)n2)c1OC [LUSUTROMBOPAG],0.334,13.5,> 30,15.1,16.2,,
Cc1cc(C)cc(OCC2CNC(=O)O2)c1 (configuration not stated) [METAXALONE],> 30,> 30,> 30,> 30,> 30,,
CC1=C(C/C=C(\C)CCC[C@H](C)CCC[C@H](C)CCCC(C)C)C(=O)c2ccccc2C1=O [PHYTONADIONE],> 30,> 30,> 30,> 30,9.52,,
NC(=O)C1(N2CCCCC2)CCN(CCCC(=O)c2ccc(F)cc2)CC1 [PIPAMPERONE],> 30,0.398,> 30,21.7,> 30,,
CC(C)(Oc1ccc(Cl)cc1)C(=O)NC(=O)NCN1CCOCC1 [PLAFIBRIDE],> 30,> 30,> 30,> 30,> 30,,
CC(C)NC[C@H](O)COc1ccc(O)cc1 [PRENALTEROL],> 30,> 30,> 30,> 30,> 30,,
CN1CCC(N(Cc2cccs2)c2ccccc2)CC1 [THENALIDINE],> 30,23.5,> 30,> 30,> 30,,
Cc1ccc(C(C)C)c(O)c1 [THYMOL],> 30,25.8,> 30,> 30,> 30,,
CN(C)CCN(Cc1ccccc1)c1ccccn1 [TRIPELENNAMINE],> 30,> 30,> 30,> 30,> 30,> 10,1.3
Cc1cccc(C)c1NC(=O)c1cc(S(N)(=O)=O)c(Cl)cc1O [XIPAMIDE],> 30,> 30,> 30,> 30,> 30,,
